Measurements as given in patent publication US20250144067A1, “PERSONALIZED STARVATION THERAPY FOR CANCER” (Faeth Therapeutics, Inc., priority 2021, published 2025).
Counter-ions that a name gives are not always drawn.

What was measured:
[1] = system: NCI-H292 lung cancer cells; test: FDA drug screening, complete media vs cholesterol-free media with simvastatin (TABLE 2); format: cell-based, human; conditions: for Cholesterol-free media + simvastatin (0.04 μM) / Complete Media: NCI-H292 cells
[2] = system: NCI-H292 lung cancer cells; test: FDA drug screening, complete media vs cholesterol-free media without statin (TABLE 1); format: cell-based, human
[3] = drug in cholesterol-free media with simvastatin 0.04 μM
[4] = complete media vs cholesterol-free media + simvastatin (0.04 μM), […]
[5] = Complete minus Cholesterol-free, […]
[6] = NCI-H292 cells, cholesterol-free media without statin
[7] = Complete minus Cholesterol-free, greater than 0 enhanced anti-cancer activity, about 0 neutral, below 0 antagonist
[8] = NCI-H292 cells, FDA drug library screen, cholesterol-free media without statin
[9] = FDA drug library screen, cholesterol-free media with simvastatin 0.04 μM
[10] = FDA drug library screen, complete media
[11] = complete media vs cholesterol-free media + simvastatin (0.04 μM), >0 enhanced anti-cancer activity, about 0 neutral, <0 antagonist
[12] = NCI-H292 cells in cholesterol-free media without statin
[13] = NCI-H292 cells in complete media
[14] = complete media minus cholesterol-free media + simvastatin, >0 enhanced anti-cancer activity, about 0 neutral, <0 antagonist
[15] = NCI-H292 cells, cholesterol-free media without statin, FDA drug library screen
[16] = NCI-H292 cells, complete media, FDA drug library screen
[17] = complete vs cholesterol-free media, >0 enhanced anti-cancer activity, about 0 neutral, <0 antagonist
[18] = cholesterol-free media with simvastatin 0.04 μM, cell growth value in FDA drug screen
[19] = complete media, cell growth value in FDA drug screen
[20] = Complete minus Cholesterol-free, >0 enhanced anti-cancer activity, about 0 neutral, <0 antagonist
[21] = complete vs cholesterol-free media, greater than 0 enhanced anti-cancer activity, about 0 neutral, below 0 antagonists

## N#Cc1c(N2C[C@@H]3NCCO[C@H]3C2)c(F)cc2c(=O)c(C(=O)O)cn(C3CC3)c12 [Finafloxacin]
[1]; [3]
  Cholesterol-free media + simvastatin (0.04 μM): 1.227
[1]; drug in complete media
  Complete Media: 0.9973
[1]; [4]
  Difference: −0.23
[2]; [5]
  Difference: −0.22
[2]; [6]
  Cholesterol-free: 1.006
[2]; NCI-H292 cells, complete media
  Complete: 0.7899

## CCOC(CN1CCN(CC(C)C(=O)c2ccccc2)CC1)c1ccccc1 (centres unmarked) [Eprazinone (dihydrochloride)]
[1]; cholesterol-free media with simvastatin 0.04 μM, FDA drug library screen (TABLE 2)
  Cholesterol-free media + simvastatin (0.04 μM): 0.9386
[1]; complete media, FDA drug library screen (TABLE 2)
  Complete Media: 0.9227
[1]; complete media minus cholesterol-free media + simvastatin (0.04 μM), >0 enhanced anti-cancer activity, about 0 neutral, <0 antagonist
  Difference: −0.02
[2]; [7]
  Difference: −0.09
[2]; [8]
  Cholesterol-free: 1.265

## C[Se]CC[C@H](N)C(=O)O [Selenomethionine]
[1]; [9]
  Cholesterol-free media + simvastatin (0.04 μM): 1.83
[1]; [10]
  Complete Media: 1.71
[1]; [11]
  Difference: −0.12
[2]; Complete minus Cholesterol-free, greater than 0 enhanced anti-cancer activity, about 0 neutral, below 0 antagonists
  Difference: −0.63
[2]; [12]
  Cholesterol-free: 1.898
[2]; [13]
  Complete: 1.265

## OCC(S)CS (centres unmarked) [Dimercaprol]
[1]; [9]
  Cholesterol-free media + simvastatin (0.04 μM): 0.8801
[1]; [10]
  Complete Media: 1.094
[1]; [14]
  Difference: 0.21
[2]; [7]
  Difference: −0.18
[2]; [8]
  Cholesterol-free: 0.9919
[2]; NCI-H292 cells, FDA drug library screen, complete media
  Complete: 0.8115

## C[C@@H](c1ncncc1F)[C@](O)(Cn1cncn1)c1ccc(F)cc1F [Voriconazole]
[1]; [3]
  Cholesterol-free media + simvastatin (0.04 μM): 1.08
[1]; drug in complete media
  Complete Media: 0.8559
[1]; [11]
  Difference: −0.22
[2]; [15]
  Cholesterol-free: 0.6824
[2]; [16]
  Complete: 0.9897
[2]; [17]
  Difference: 0.31

## CN[C@H]1C(=O)N[C@@H]2Cc3ccc(cc3)Oc3cc4cc(c3O[C@@H]3O[C@H](C(=O)O)[C@@H](O)[C@H](O)[C@H]3NC(=O)CCCCCCCCC(C)C)Oc3ccc(cc3Cl)[C@@H](O)[C@@H]3NC(=O)[C@H](NC(=O)[C@@H]4NC(=O)[C@@H](NC2=O)c2cc(cc(O)c2Cl)Oc2cc1ccc2O)c1ccc(O)c(c1)-c1c(O[C@H]2O[C@H](CO)[C@@H](O)[C@H](O)[C@@H]2O)cc(O)cc1[C@@H](C(=O)NCCCN(C)C)NC3=O [Dalbavancin (hydrochloride)]
[1]; [3]
  Cholesterol-free media + simvastatin (0.04 μM): 1.058
[1]; drug in complete media
  Complete Media: 0.8779
[1]; [4]
  Difference: −0.18
[2]; [5]
  Difference: −0.27
[2]; [6]
  Cholesterol-free: 1.639
[2]; NCI-H292 cells, complete media
  Complete: 1.366

## CCC(C)n1ncn(-c2ccc(N3CCN(c4ccc(OCC5COC(Cn6cncn6)(c6ccc(Cl)cc6Cl)O5)cc4)CC3)cc2)c1=O (centres unmarked) [Itraconazole]
[1]; [9]
  Cholesterol-free media + simvastatin (0.04 μM): 1.121
[1]; [10]
  Complete Media: 0.9797
[1]; [11]
  Difference: −0.14
[2]; [15]
  Cholesterol-free: 0.7502
[2]; [16]
  Complete: 1.257
[2]; [17]
  Difference: 0.51

## C[C@@H](NCCCc1cccc(C(F)(F)F)c1)c1cccc2ccccc12 [Cinacalcet]
[1]; [18]
  Cholesterol-free media + simvastatin (0.04 μM): 0.8605
[1]; [19]
  Complete Media: 0.9247
[1]; [14]
  Difference: 0.06
[2]; [15]
  Cholesterol-free: 0.8181
[2]; [16]
  Complete: 1.378
[2]; [17]
  Difference: 0.56

## O=S(=O)(O)CCS [Mesna]
[1]; [9]
  Cholesterol-free media + simvastatin (0.04 μM): 1.227
[1]; [10]
  Complete Media: 1.122
[1]; [11]
  Difference: −0.10
[2]; [20]
  Difference: −0.29
[2]; [6]
  Cholesterol-free: 1.145
[2]; NCI-H292 cells, complete media
  Complete: 0.8536

## O=C(O)CCn1c2c(c3ccccc31)C[C@H](NS(=O)(=O)c1ccc(F)cc1)CC2 [Ramatroban]
[1]; [9]
  Cholesterol-free media + simvastatin (0.04 μM): 1.061
[1]; [10]
  Complete Media: 0.9101
[1]; [11]
  Difference: −0.15
[2]; [20]
  Difference: −0.25
[2]; [6]
  Cholesterol-free: 0.905
[2]; NCI-H292 cells, complete media
  Complete: 0.6524

## O=c1[nH]c2ccccc2n1CCN1CCN(c2cccc(C(F)(F)F)c2)CC1 [Flibanserin]
[1]; [18]
  Cholesterol-free media + simvastatin (0.04 μM): 1.01
[1]; [19]
  Complete Media: 1.089
[1]; [14]
  Difference: 0.08
[2]; [6]
  Cholesterol-free: 1.364
[2]; NCI-H292 cells, complete media
  Complete: 0.9648
[2]; [21]
  Difference: −0.40

## C=C1CC[C@@H]2[C@](C)(COC(=O)CCC(=O)O)[C@H](OC(=O)CCC(=O)O)CC[C@@]2(C)[C@@H]1/C=C/C1=CCOC1=O [Dehydroandrographolide succinate]
[1]; cholesterol-free media with simvastatin 0.04 μM, […]
  Cholesterol-free media + simvastatin (0.04 μM): 0.8998
[1]; complete media, […]
  Complete Media: 1.004
[1]; complete media minus cholesterol-free media + simvastatin, […]
  Difference: 0.10
[2]; [5]
  Difference: −1.21
[2]; [12]
  Cholesterol-free: 2.195
[2]; [13]
  Complete: 0.9855

## c1cc(CN2CCCNCCNCCCNCC2)ccc1CN1CCCNCCNCCCNCC1 [Plerixafor]
[1]; [9]
  Cholesterol-free media + simvastatin (0.04 μM): 1.17
[1]; [10]
  Complete Media: 1.011
[1]; [11]
  Difference: −0.16
[2]; [6]
  Cholesterol-free: 1.296
[2]; NCI-H292 cells, complete media
  Complete: 0.935
[2]; [21]
  Difference: −0.36
